Source: paper PMC8602723, “Comparative assessment of antimicrobial, antiradical and cytotoxic activities of cannabidiol and its propyl analogue cannabidivarin” (Scientific Reports, 2021)
pEC50: −log10 of the molar value.

Legend:
[1] = ABTS assay (radical scavenging); details: 50% reduction of initial ABTS radical absorbance, 6 min; 95% confidence limits in brackets
Description: An ABTS assay was performed following the procedure described by Lavorgna et al. 2019[66]. The cationic ABTS radical (ABTS^+) was generated by oxidizing ABTS (7 mM) with potassium persulfate (140 mM K2S2O8), and the mixture was incubated for 12–16 h in the dark. The ABTS^+ working solution was diluted to an absorbance of […] OD at 734 nm. […] Distilled water was used for the blank, Trolox was used for the standard control, and methanol was used for the solvent control.
The results are expressed as the median effective concentration (EC50). Furthermore, Trolox equivalent antioxidant capacity (TEAC) values were calculated following the procedure used by Shimamura end colleagues[68]:5 TEAC=EC50Trolox/EC50sample
(§1) All results from five independent experiments are expressed as the IC50 or EC50 as determined by analysis with Prism 5 software (GraphPad Inc., San Diego, CA, USA) and nonlinear regression (log agonist vs. normalized response-variable slope) with a 95% confidence range. Lowest observed adverse effect concentrations (LOAECs) were calculated by one-way ANOVA and Dunnett’s comparison test. Differences compared to the controls were considered significant as follows: *p < 0.05, **p < 0.001 and ***p < 0.0001.

[2] = DPPH assay (radical scavenging); details: 50% reduction of initial DPPH radical absorbance, 30 min; 95% confidence limits in brackets
Description: DPPH assay was performed following the protocol described by Brand-Williams et al.[69]. DPPH^⋅ was dissolved in methanol, generating a purple solution (101.43 µM). […] Furthermore, 940 μL of methanol and 60 μL of distilled water were used for the blank. Trolox was used as the standard control, and methanol was used as the solvent control.
The results were expressed as the median effective concentration of sample able to reduce the initial absorbance of the DPPH radical (EC50). Furthermore, TEAC values were calculated in line with Shimamura end colleagues[68] as previously reported.
as §1

## Cc1c(C)c2c(c(C)c1O)CCC(C)(C(=O)O)O2 (centres unmarked) [TROLOX, 6-Hydroxy-2,5,7,8-tetramethylchromane 2-carboxylic acid, reference compound]
[1]
  pEC50: 3.95
[2]
  pEC50: 3.49
